# Patent US12162892B2, “CD16a binding agents and uses thereof” (KLEO PHARMACEUTICALS, INC., priority 2018, dated 2024)
# Several values for one entry are separate records, joined by “and”; a condition that tells them apart may be missing. Equal values may be shown once.
# Experiments:
# [1] = molecular target: CD64 (Homo sapiens, UniProt P12314); experiment: Biotin ELISA, interaction with various receptors (Example 55); assay type: binding; details: three replicate values per compound
# Description: (§1) Coat ELISA plates (Costar 3922) using Neutravidin (Thermo 31000) at 5 μg/ml (100 μl/well) for 1 hour at 37° C. Plates were washed 4 times with PBST (PBS, 0.05% Tween 20-200 μl, 1 minute/wash) then blocked using 200 μl 5% bovine serum albumin (BSA, Heat Shock, Fraction V-American Bio AB01088-00100) in PBST for 2 hours at 25° C. with moderate shaking. BSA was removed and plates were washed. Biotinylated ligands diluted in PBSTB (PBST+0.1% BSA) were then added (100 μl/well) and incubated for 1 hour at 25° C. with gentle shaking. Ligands were removed and plates were washed. Any remaining unoccupied neutravidin binding sites were blocked by adding 100 μM Biotin (Fisher BP232-1) (100 μl/well) and incubated for 1 hour at 25° C. with gentle shaking. Plates were then washed. […] Protein was removed and plates were washed. Streptavidin-HRP (Invitrogen 434323) diluted 1:5000 in PBSTB was added (100 μl/well) and incubated for 1 hour at 25° C. with gentle shaking. Wash plates. Substrate (Super Signal ELISA Pico Chemiluminescent Substrate-Thermo 37069) was added (100 μl/well) and plates were incubated for 5 minutes at 25° C. with gentle shaking. Luminescence was then measured on the Biotek Synergy H1 microplate reader.
# (§2) Using similar methods as Examples 47 or 53, interactions with a number of receptors were measured. In some embodiments, “stock” is antibody only, and “control” is an antibody that went through the same procedure except using DMSO only as opposed to a compound. When contacted with targeting moieties such as antibodies in the Examples, compounds, e.g., I-95, I-96, etc. can react through their reactive groups
# [2] = molecular target: T1, CD16a158F (Homo sapiens, UniProt P08637); experiment: as above; assay type: binding; details: three replicate values per compound
# T1 sequence (P08637 17-208 limits assumed): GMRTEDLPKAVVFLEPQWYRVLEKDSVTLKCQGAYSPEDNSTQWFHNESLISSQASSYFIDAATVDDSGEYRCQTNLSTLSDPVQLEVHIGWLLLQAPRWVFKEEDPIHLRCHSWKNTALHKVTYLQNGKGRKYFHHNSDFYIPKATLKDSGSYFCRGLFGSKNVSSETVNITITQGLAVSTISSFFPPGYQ
# Description: as §1, §2
# [3] = molecular target: T2, CD32b (Homo sapiens, UniProt P31994); experiment: as above; assay type: binding; details: three replicate values per compound
# T2 sequence (P31994 43-310): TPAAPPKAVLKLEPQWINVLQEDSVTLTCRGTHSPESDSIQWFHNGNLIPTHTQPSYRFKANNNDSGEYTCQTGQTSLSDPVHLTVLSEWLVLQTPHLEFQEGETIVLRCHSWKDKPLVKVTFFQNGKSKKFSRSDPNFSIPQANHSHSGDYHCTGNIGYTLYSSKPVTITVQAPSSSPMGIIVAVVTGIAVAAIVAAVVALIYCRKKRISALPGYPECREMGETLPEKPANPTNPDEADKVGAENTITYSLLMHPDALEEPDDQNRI
# Description: as §1, §2
# [4] = test system: CD32a-R167; experiment: as above; assay type: binding; details: three replicate values per compound
# Description: as §1, §2
# [5] = molecular target: T3, CD16a158V (Homo sapiens, UniProt P08637, F176V); experiment: as above; assay type: binding; details: three replicate values per compound
# T3 sequence (P08637 17-208 F176V): as the sequence (P08637 17-208 limits assumed) above, with F160V counted along it
# Description: as §1, §2
# [6] = molecular target: T4, CD32a H167 (Homo sapiens, UniProt P12318); experiment: as above; assay type: binding; details: three replicate values per compound
# T4 sequence (P12318 36-218 limits assumed): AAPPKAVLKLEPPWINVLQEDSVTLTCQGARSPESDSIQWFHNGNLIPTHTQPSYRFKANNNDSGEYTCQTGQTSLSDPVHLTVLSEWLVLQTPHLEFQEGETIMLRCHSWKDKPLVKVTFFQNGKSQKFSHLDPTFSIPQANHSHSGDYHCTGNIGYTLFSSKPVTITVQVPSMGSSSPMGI
# Description: as §1, §2
# [7] = molecular target: CD3ed (Homo sapiens, UniProt P04234+P07766); experiment: as above; assay type: binding; details: three replicate values per compound
# Chain of CD3ed (P07766 23-126 limits assumed): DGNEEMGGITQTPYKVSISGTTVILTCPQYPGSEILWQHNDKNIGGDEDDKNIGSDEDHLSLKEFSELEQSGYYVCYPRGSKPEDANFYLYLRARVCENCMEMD
# Chain of CD3ed (P04234 22-105 limits assumed): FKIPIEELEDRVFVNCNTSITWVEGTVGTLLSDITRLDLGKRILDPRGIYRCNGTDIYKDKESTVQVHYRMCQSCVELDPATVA
# Description: as §1, §2
# [8] = Biotin ELISA, No Protein (Example 55); assay type: binding; details: three replicate values per compound
# Description: as §1, §2
# [9] = test system: primary monocytes; experiment: ADCP assay using fresh primary monocytes; assay type: cell-based, human; details: beads loaded with test compound at 50 uM; 37C for 18 hrs
# Description: (§3) Biotinylated fluorescent beads (Invitrogen, cat #P35372) were thoroughly mixed by vortexing for 1 min. Ten microliters of supplied bead suspension per treatment type were dispensed in Eppendorf tubes, and washed with 1 ml PBS […], then re-suspended in 500 uL of 1% BSA in PBS. Test compounds were added to bead suspensions to a final concentration of 50 uM, and biotinylated human IgG whole molecule (Rockland 009-0602) final concentration of 20 ug/mL.
# (§4) Tubes were incubated at room temperature for 1 hr on a rocking platform.
# (§5) Following incubation, beads were pelleted in a microcentrifuge at 12,000 g for 5 minutes at room temperature. Supernatants were carefully aspirated and beads were washed 5 times by resuspending in 1 ml of PBS 1% BSA, and centrifuging as described above. Finally, beads were resuspended in 500 ul of PBS 1% BSA and used in ADCP assay.
# PBMC, freshly isolated from whole blood (Bioreclamation IVT0) using Ficoll-Paque density centrifugation were resuspended in serum-free, supplemented RPMI at 2×10^6 cells/mL.
# Ten milliliters of the resulting cell suspension was seeded into 75-cm^2 tissue culture flask (Denville Scientific TC9341) and incubated 2-3 hr at 37° C. 5% CO2 to allow cell adhesion. Following incubation, media was decanted and surface of the flask was carefully washed twice, each time with 10 ml serum-free, supplemented RPMI to remove any residual non-adherent cells. To remove adherent cells, 10 mL of ice-cold 2.5 mM EDTA/PBS solution was added for 10 min on ice. Cells were transferred to a 15-ml conical tube and centrifuge 10 min at 300×g, room temperature, to remove the EDTA/PBS solution. Monocytes were then resuspended in RPMI 10% FCS at 5×10^5 cells/mL to be used in ADCP assay. Monocyte purity was assessed by staining cells with antibodies to human CD3 FITC (Biolegend 300306), CD19 PeCy7 (Biolegend 302216), CD14 BV421 (BD Biosciences, 565283), and CD16 (Biolegend 302046).
# (§6) Monocytes or THP-1 cells (TIB-202 ATCC) were seeded into 96 well round bottom 96 well plates at the density of 10^5 cells per well in 200 ul, and 10 uL of fluorescent bead suspension prepared as described above was added to each well. Well contents were mixed by pipetting up and down using a multichannel pipet, and plates were incubated at 37C for 18 hrs. After incubation, well contents were transferred into flat bottom black 96 well plates (Costar #3358) and centrifuged for 2 minutes at 300 g to allow for better visualization of the cells. Images were taken using Zoe fluorescent cell imager (Biorad).
# [10] = molecular target: T1, CD16a158F; experiment: Biotinylated Ligand ELISA Assay; assay type: binding; parameters: purchased Acro Biosystems CDA-H82E8; details: Biotinylated CD16a protein at 10 nM
# Description: as §1
# [11] = test system: CD16a negative THP1 cells; experiment: ADCP assay using THP-1 cells; assay type: cell-based; details: beads loaded with test compound at 50 uM; 37C for 18 hrs
# Description: as §3, §4, §5, §6
# [12] = molecular target: T3, CD16a158V; experiment: Biotinylated Ligand ELISA Assay; assay type: binding; details: Biotinylated CD16a protein at 10 nM
# Description: as §1
# [13] = molecular target: T1, CD16a158F; experiment: Microscale Thermophoresis; assay type: binding; parameters: purchased Acro Biosystems CDA-H82E8; details: read-out: MST-CD16a158F KD
# Description: (§7) Target proteins (poly-histidine tagged, 600 nM) were fluorescently labeled combination with an equal volume of dye (200 nM, His-Tag labeling kit RED-tris-NTA NanoTemper: MO-L008) PBST. The mixture rotated in the dark for 45 min before being spun down at 12000 rpm for 15 min to remove uncomplexed material. The fluorescence of the removed supernatant was adjusted to for a test concentration of 40-80 nM (2× the final measured). Test ligands were prepared across a 12-point dilution series in a 96-well PCR plate at a volume of 20 uL at 2× the concentration desired for testing (0.2% BSA in PBST). The dilution series was then combined with an equal volume of the labeled target at 2× the concentration desired for testing. Capillaries were added to the wells of the combined target/ligand complex and measured by MST. Measurements were taken using a Nanotemper Monolith NT.115, and the data was analyzed using NanoTemper MO.Control software.
# [14] = molecular target: T3, CD16a158V; experiment: Microscale Thermophoresis; assay type: binding; details: read-out: MST-CD16a158V KD
# Description: as §7
# Chain of CD64 (P12314 16-374): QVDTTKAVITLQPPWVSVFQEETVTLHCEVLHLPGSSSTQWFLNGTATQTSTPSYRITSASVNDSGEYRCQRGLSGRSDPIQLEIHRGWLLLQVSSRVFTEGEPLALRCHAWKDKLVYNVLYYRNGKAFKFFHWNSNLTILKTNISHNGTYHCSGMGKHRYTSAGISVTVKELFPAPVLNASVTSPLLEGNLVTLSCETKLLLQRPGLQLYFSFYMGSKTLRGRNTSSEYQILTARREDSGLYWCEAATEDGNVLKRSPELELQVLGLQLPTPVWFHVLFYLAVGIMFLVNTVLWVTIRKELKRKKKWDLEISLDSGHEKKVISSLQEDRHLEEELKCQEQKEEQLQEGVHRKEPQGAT
Compound,Biotin ELISA Results CD64 [1],Biotin ELISA Results CD16a-158F [2],Biotin ELISA Results CD32b [3],Biotin ELISA Results CD32a-R167 [4],Biotin ELISA Results CD16a-158V [5],Biotin ELISA Results CD32a-H167 [6],Biotin ELISA Results CD3ed [7],Biotin ELISA Results No Protein [8],ACDP (primary monocytes)-normalized phagocytosis score [9],Biotinylated Ligand ELISA-CD16a158F Binding (RLU) [10],ACDP (CD16a negative THP1 cells)-normalized phagocytosis score [11],Biotinylated Ligand ELISA-CD16a158V Binding (RLU) [12],Kd [13] [µM],Kd [14] [µM]
O=C(CCCC[C@@H]1SC[C@@H]2NC(=O)N[C@@H]21)NCCOCCOCCOCCOCCOCCOCCOCCOCCNC(=O)c1cnc(N2CCC3(CC2)NC(=O)C(Nc2ccccc2)C3=O)nc1 (stereo partly drawn) [Compound I-21],98211 and 69008 and 131784,6775 and 6468 and 5831,14249 and 14080 and 11349,12004 and 10942 and 9796,5747 and 5338 and 6303,15126 and 14461 and 15658,8285 and 6369 and 7518,7902 and 6992 and 7029,C (a normalized phagocytosis score of 1.0-1.5),"A (a relative luminescence value (RLU) of >100,000)",D (a normalized phagocytosis score of 0.5-1.0),"A (a relative luminescence value (RLU) of >100,000)",–,–
"O=C(CCCC[C@@H]1SC[C@@H]2NC(=O)N[C@@H]21)NCCOCCOCCOCCOCCOCCOCCOCCOCCn1cc(-c2ccc(NC(=O)N3CCC4(CC3)NC(=O)N(Cc3ccccc3)C4=O)cc2)nn1 [Compound I-17, N-{4-[1-(26-{5-[(3aS,4S,6aR)-2-oxo-hexahydro-1H-thieno[3,4-d]imidazol-4-yl]pentanamido}-3,6,9,12,15,18,21,24-octaoxahexacosan-1-yl)-1H-1,2,3-triazol-4-yl]phenyl}-3-benzyl-2,4-dioxo-1,3,8-triazaspiro[4.5]decane-8-carboxamide]",44623 and 46028 and 52372,122 and 5830 and 2636,2439 and 955 and 1191,11182 and 5954 and 10675,443 and 2316 and 1591,1642 and 1978 and 2246,1412 and 1083 and 1250,−236 and −272 and 237,C (a normalized phagocytosis score of 1.0-1.5),"D (a relative luminescence value (RLU) of 1-1,000)",B (a normalized phagocytosis score of 1.5-2.0),"D (a relative luminescence value (RLU) of 1-1,000)",–,–
O=C(CCCC[C@@H]1SC[C@@H]2NC(=O)N[C@@H]21)NCCOCCOCCOCCOCCOCCOCCOCCOCCn1cc(-c2ccc(C(=O)N3CCC4(CC3)NC(=O)N(Cc3ccccc3)C4=O)cc2)nn1 [Compound I-28],–,–,–,–,–,–,–,–,–,"B (a relative luminescence value (RLU) of 10,000-100,000)",–,"B (a relative luminescence value (RLU) of 10,000-100,000)",0.1 to 0.5,–
O=C(CCCC[C@@H]1SC[C@@H]2NC(=O)N[C@@H]21)NCCOCCOCCOCCOCCOCCOCCOCCOCCC(=O)N1CCC(N2CC(=O)N(c3ccccc3)C2=O)CC1 [Compound I-30],–,–,–,–,–,–,–,–,–,–,–,–,> 1,–
COc1ccc(OC)c(N2CC(C(=O)Nc3ccc(-c4cn(CCOCCOCCOCCOCCOCCOCCOCCOCCNC(=O)CCCC[C@@H]5SC[C@@H]6NC(=O)N[C@@H]65)nn4)cc3)CC2=O)c1 (stereo partly drawn) [Compound I-39],–,–,–,–,–,–,–,–,B (a normalized phagocytosis score of 1.5-2.0),"C (a relative luminescence value (RLU) of 1,000-10,000)",B (a normalized phagocytosis score of 1.5-2.0),"C (a relative luminescence value (RLU) of 1,000-10,000)",–,0.1 to 0.5
O=C(CCCC[C@@H]1SC[C@@H]2NC(=O)N[C@@H]21)NCCOCCOCCOCCOCCOCCOCCOCCOCCn1cc(-c2ccc(NC(=O)C3CC(=O)N(c4ccccc4)C3)cc2)nn1 (stereo partly drawn) [Compound I-36],54153 and 79621 and 89966,2154 and −1155 and −213,98 and 1052 and 486,280 and −228 and −1215,−378 and −180 and −282,1138 and 43 and 249,1016 and −29 and −4459,−764 and −989 and −154,B (a normalized phagocytosis score of 1.5-2.0),"C (a relative luminescence value (RLU) of 1,000-10,000)",B (a normalized phagocytosis score of 1.5-2.0),"C (a relative luminescence value (RLU) of 1,000-10,000)",–,0.001 to 0.1
COc1ccc(OC)c(N2CC(C(=O)Nc3ccc(-c4cn(CCCC(=O)O)nn4)cc3)CC2=O)c1 (stereo not drawn) [Compound I-29],–,–,–,–,–,–,–,–,–,–,–,–,0.1 to 0.5,0.1 to 0.5
